These are literature values, as cited in patent US9302241B2, “Method of preparing lipid nanoparticles” (UNIVERSITE D'ANGERS, priority 2008, dated 2016).

The conditions of the series: concentration of Fondaparinux in its brand form Arixtra.

Take Fondaparinux: the solubility in water result is “greater than 12.5 mg/ml”.
